Laboratory results: patent publication US20110294952A1, “Optimized Drug Conjugates” (SynDevRX, priority 2010, published 2011)
≈ marks a conversion by molar mass, not a printed value.

Columns and labels:
[1] = Aqueous stability of carbamoylfumagillol in buffer; format: physicochemical; settings: for Natural Rate Constant: 37° C., 5 μM
Protocol: At the appropriate time points, a 50 μL sample was withdrawn and diluted with three volumes of methanol containing propranolol as an internal standard (one solution was made for the entire study). The concentration of carbamoylfumagillol in the solution was analyzed by LC/MS/MS over seven days.

[2] = test system: A549 cells vs HUVEC cells; test: A549/HUVEC selectivity; format: cell-based, human; settings: ratio of IC50 values
A549 cells [3] = test: A549 human non-small cell lung carcinoma cell viability assay (CellTiter-Glo); format: cell-based; settings: small molecules, 72 hours
Protocol: (§1) Test compounds, small molecules or polymer conjugates, were dissolved in dimethyl sulfoxide to a stock concentration of 5 mg/mL. The test agents were then diluted to an intermediate concentration at 200 μg/mL in 10% DMSO. Further dilutions were completed serially 3-fold in 10% DMSO to produce 12 decreasing concentrations for in-vitro analysis. To achieve the target concentrations of the in-vitro assays, 1 μL of the intermediate drug preparation was delivered to the cells (seeded in a volume of 50 μL). The final DMSO concentration for the tests was 0.2% for all doses of test agent.
Cells were exposed to twelve increasing concentrations of formulated test agent from 2×10^−6 to 4.0 μg/mL for 72 hours. Following 72 hour exposure, 25 μL it of CellTiter-Glo® Reagent was added to each well. The plates were incubated for 60 minutes at 37° C. in a humidified incubator. After incubation, luminescence was recorded using the Molecular Devices AnalystGT multi-mode reader.
Data are expressed as the percent cell growth of the untreated (vehicle) control calculated from the luminescence signals. The surviving fraction of cells is determined by dividing the mean luminescence values of the test agents by the mean luminescence values of untreated control. […]

HCT-116 cells = test: HCT-116 human colon tumor cell viability assay (CellTiter-Glo); format: cell-based; settings: small molecules, 72 hours, read-out: HCT116 IC50 Average
Protocol: as §1
(§2) Data are expressed as the percent cell growth of the untreated (vehicle) control calculated from the luminescence signals. The surviving fraction of cells is determined by dividing the mean luminescence values of the test agents by the mean luminescence values of untreated control. The inhibitory concentration value for the test agent(s) and control were estimated using Prism 5 software (GraphPad Software, Inc.) by curve-fitting the data using the non-linear regression analysis.
The human tumor cell lines A549 and HCT-116 were obtained from American Type Culture Collection (Manassas, Va.). […]
Cells were exposed to twelve increasing concentrations of formulated test agent from 2.3×10^−6 to 4.02 μg/mL for 72 hours. […] After incubation, luminescence was recorded using the Molecular Devices AnalystGT multi-mode reader.

HUVEC cells = test: Human umbilical vein epithelial cell viability assay (CellTiter-Glo); format: cell-based; settings: small molecules, 72 hours
Protocol: as §1, §2
The Human umbilical vein epithelial cells (HUVEC) were obtained from Lonza (Basel, Switzerland). […]
HUVEC cells were seeded at 1000 cells per well 24 hours prior to test agent exposure in a volume of 50 μL. […] After incubation, luminescence was recorded using the Molecular Devices AnalystGT multi-mode reader.

[4] = In vivo pharmacokinetics of polymer conjugate; parameters: species or system Sprague-Dawley rats; settings: SDX-7539 single bolus IV 30 mg/kg, rat plasma
Protocol: FIG. 6 is a graph showing the plasma concentration of the active metabolite, SDX-7539, as a function of time in Sprague-Dawley rats, to which either the polymer conjugate SDX-7320 (single bolus, intravenous injection, 200 mg/kg) or the small molecule SDX-7539 (single bolus, intravenous injection, 30 mg/kg) has been administered.
The polymer conjugate, SDX-7320, or the in vivo release product, SDX-7539 were administered to Sprague-Dawley rats (N=3). Blood was collected over 48 hours after dosing to determine the plasma concentration of SDX-7539 by LC-MS/MS. The LLOQ for SDX-7539 was 2.5 nM. The terminal elimination half-life for SDX-7539 was estimated by fitting a linear regression to the ln [SDX-7539] versus time data. […] Cmax for the polymer is about 2% of the value for the small molecule.

A549 cells [5] = format: in vitro ADME, human
Protocol: Cells were treated as in Example 51 except that at the end of 72 hour exposure to test agent, the cells were frozen (−70° C.) and stored for subsequent evaluation by LC/MS.

CO[C@@H]1[C@H](OC(N)=O)CC[C@]2(CO2)[C@H]1[C@@]1(C)O[C@@H]1CC=C(C)C [Compound O-7127-1, Carbamoylfumagillol]
Natural Rate Constant ([1]; pH 4.0 sodium acetate buffer): 0.0054 h⁻¹ | Natural Rate Constant ([1]; pH 5.3 sodium acetate buffer): 0.0017 h⁻¹ | decomposition over the seven day period ([1]; pH 5.3 to 8.0, 37° C., seven days): less than 20% | Natural Rate Constant ([1]; pH 6.7 potassium phosphate buffer): 0.0010 h⁻¹ | Natural Rate Constant ([1]; pH 8.0 potassium phosphate buffer): 0.0011 h⁻¹ | A549/HUVEC IC50 ratio [2]: 33.63

CO[C@@H]1[C@H](OC(=O)N[C@@H](C(N)=O)C(C)C)CC[C@]2(CO2)[C@H]1[C@@]1(C)O[C@@H]1CC=C(C)C [Compound O-7177, PPI-2458]
IC50 (A549 cells [3]): 0.215 ng/mL (≈ 0.506 nM) | IC50 (HCT-116 cells): 0.236 ng/mL (≈ 0.556 nM) | IC50 (HUVEC cells): 0.101 ng/mL (≈ 0.238 nM)

CO[C@@H]1[C@H](OC(=O)NC2CCC(N)CC2)CC[C@]2(CO2)[C@H]1[C@@]1(C)O[C@@H]1CC=C(C)C (stereo partly drawn) [SDX-7539]
Cmax [4]: ~15 µM | half-life of SDX-7539 [4]: 10 to 15 min

poly[HPMA-co-MA-GFLG-N-(6-aminohexyl)carbamoylfumagillol]
metabolites identified from treated cells (A549 cells [5]): N-(6-aminohexyl)carbamoylfumagillol, fumagill-6-yl {6-[(aminoacetyl)amino]hexyl}carbamate, and the epoxide hydrolysis product, (3S,7aR)-7a-(hydroxymethyl)-4-methoxy-3-methyl-2-(3-methylbut-2-en-1-yl)octahydro-1-benzofuran-3-ol-5-yl 6-aminohexyl carbamate
